Experimental data as given in PubChem BioAssay AID624491 (Broad Institute, 2012).

System: D54 ERlucT glycosylation luciferase reporter, luminescence, 24 h
Experiment: N-linked glycosylation inhibitors, luciferase reporter, dose response, D54 ERlucT cells, luminescence, cherry-picks (AID 624491);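 further: signal gain reflects blocked N-linked glycosylation of a luciferase reporter; actives raise luciferase signal so AC26 marks activators of the reporter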

Row | SMILES | AC26 [nM]
1 | CCn1c(=O)c2cc(C(=O)NCCN(C)C)sc2c2ccccc21 | 5230
2 | Cc1ccc2oc(C(=O)NCc3ncc(C)[nH]3)c(C)c2c1 | 6750
3 | CCC(CC)Nc1ccc(C(CC(N)=O)NC(=O)Cc2ccc(Br)cc2)cc1[N+](=O)[O-] (stereo not drawn) | 4130
4 | COc1ccc(NC(=O)C2(C)Cc3c(-c4cccc(NC(C)=O)c4)ccnc3O2)cn1 (stereo not drawn) | 10100
5 | Cc1[nH]c2ccccc2c1/C=N/NC(=O)c1cc(-c2ccncc2)nc2ccccc12 | 4040
6 | COc1ccc(OC)c(S(=O)(=O)Nc2ccc(-c3ccc4nnc(C)n4n3)cc2)c1 | 3190
7 | COC(=O)c1cc(OC)c(OC)cc1NC(=S)NC(=O)c1ccco1 | 607
8 | COc1ccc2c(c1)[C@H]1[C@H](CO2)[C@H](c2ccccc2)[C@]2(C)C(=O)Nc3ccc(Cl)cc3C(=O)N12 | 426
9 | COc1cc(/C=N/NC(=O)c2cc(-c3c(C)nn(-c4ccccc4)c3C)n[nH]2)ccc1O | 1390
10 | O=C(CCN1C(=O)/C(=C/c2cccs2)SC1=S)N1CCCCC1 | 1220
11 | COc1ccccc1OCC(=O)N/N=C/C=C/c1ccc([N+](=O)[O-])o1 | 432
12 | COc1cc2c(cc1OC)C(=O)N1[C@H]3c4cc(Cl)ccc4OC[C@@H]3[C@H](c3ccccc3)[C@]1(C)C(=O)N2 | 609
13 | CCN1C(=O)c2cccc3c(S(=O)(=O)Nc4ccccn4)ccc1c23 | 2870
14 | Cc1cccc2cc(/C=C/C(=O)c3ccco3)c(Cl)nc12 | 3830
15 | c1ccc(-c2cc(NCCN3CCCCC3)c3ccccc3n2)cc1 | 2910
16 | CC(=O)c1ccc(Nc2nc(-c3sc(C)nc3C)cs2)cc1 | 40.5
17 | CC1(C(=O)NCc2cccs2)Cc2c(-c3cccc(C(F)(F)F)c3)ccnc2O1 (stereo not drawn) | 15100
18 | O=C(NCc1cccs1)C1CC(c2ccc(Cl)c(Cl)c2)=NO1 (stereo not drawn) | 5400
19 | NC(=O)COc1ccc(C(=O)/C=C2/C(=O)Nc3ccccc32)cc1 | 3180
20 | Cc1cccc2c(C(=O)N3CCN(c4ccccc4)CC3)cc(-c3ccncc3)nc12 | 198
21 | COc1ccc2noc3c2c1C(=O)c1ccccc1-3 | 441
22 | O=C(N/N=C/c1ccco1)c1cc(-c2ccncc2)nc2ccccc12 | 285
23 | O=C(Nc1nc2ccccc2c(=O)s1)c1ccco1 | 653
24 | COc1ccccc1/C=N/NC(=O)c1cc2c(OC)c(OC)ccc2[nH]1 | 495

Row | SMILES | AC26 [nM]
25 | O=C(NCCN1C(=O)S/C(=C\c2ccccc2Cl)C1=O)C1=COCCO1 | 7850
26 | COC(=O)c1cn(C(=O)c2ccc(OC)cc2)c2ccccc12 | 730
27 | CCOC(=O)c1[nH]c(C)c(C(=O)N2CCc3ccccc32)c1C | 133
28 | COc1cc(NC(=O)CN2c3cccc4cccc(c34)S2(=O)=O)cc(OC)c1OC | 1770
29 | COc1ccc(C(C)(O)c2nc(-c3ccc(F)cc3OC)cs2)cc1 (stereo not drawn) | 5930
30 | CCN(CC)CCn1c2ccccc2c2nc3ccccc3nc21 | 1950
31 | COc1cc(-c2nc(-c3ccccc3)c(-c3cccs3)[nH]2)cc(OC)c1OC | 3280
32 | O=C(Cn1cnc2c(NCc3ccccc3)ncnc21)NCc1ccccc1 | 1760
33 | O=c1cc(-c2ccccc2)[nH]c2ccc(F)cc12 | 198
34 | COc1ccc2c(c1)[C@H]1[C@H](CO2)[C@H](c2ccccc2)[C@]2(C)C(=O)Nc3ccccc3C(=O)N12 | 278
35 | O=C(NO)c1ccc(OC(F)F)cc1 | 3430
36 | O=C(NCc1ccco1)C1CC(c2ccc(C(F)(F)F)cc2)=NO1 (stereo not drawn) | 9730
37 | COc1ccccc1N1CCN(c2ccc3c(c2)S(=O)(=O)c2cccc(C(=O)NCC4CC4)c2C3=O)CC1 | 4550
38 | COC(=O)c1ccc(C)c(NS(=O)(=O)c2ccc3c(c2)OCCO3)c1 | 44.7
39 | COc1cc(-c2nnc(SCC3(c4ccc(Br)cc4)OCCO3)o2)cc(OC)c1OC | 210
40 | CNc1ccc(Br)cc(C(=O)/C=C/c2cccc(OC)c2OC)c1=O | 2220
41 | CC1(C)Cc2c(c(N3CCOCC3)nc3snc(N)c23)CO1 | 502
42 | COC(=O)c1sc(N)c(C(=O)OC)c1COC(=O)c1c(C)noc1C | 2130
43 | Cc1cccc(/C=N\Nc2cn[nH]c(=O)c2Cl)c1 | 4560
44 | COC(=O)c1cc(=O)n(-c2ccccc2)c(=Nc2ccccc2)s1 | 10800
45 | c1ccc(-n2nnnc2-c2cccc3ccccc23)cc1 | 2390
46 | COC(=O)c1ccc(S(=O)(=O)N2CCc3ccccc32)cc1 | 10600
47 | Cc1ccc(S(=O)(=O)N(C)C[C@H]2Oc3ccc(NC(=O)C4CCCCC4)cc3C(=O)N([C@H](C)CO)C[C@H]2C)cc1 | 1140
48 | O=C1Nc2ccccc2/C1=C/c1nc2ccccc2c(=O)n1-c1ccc(O)cc1 | 11500
